Test results published in paper PMC8205491, “Tetrahydroxanthohumol, a xanthohumol derivative, attenuates high-fat diet-induced hepatic steatosis by antagonizing PPARγ” (eLife, 2021).

biological target: T1, PPARγ (Homo sapiens, UniProt P37231); assay: LanthaScreen TR-FRET competitive binding assay (displacement of Fluormone Pan-PPAR Green)
T1 construct: gene PPARG
T1 sequence (P37231 235-505 limits assumed): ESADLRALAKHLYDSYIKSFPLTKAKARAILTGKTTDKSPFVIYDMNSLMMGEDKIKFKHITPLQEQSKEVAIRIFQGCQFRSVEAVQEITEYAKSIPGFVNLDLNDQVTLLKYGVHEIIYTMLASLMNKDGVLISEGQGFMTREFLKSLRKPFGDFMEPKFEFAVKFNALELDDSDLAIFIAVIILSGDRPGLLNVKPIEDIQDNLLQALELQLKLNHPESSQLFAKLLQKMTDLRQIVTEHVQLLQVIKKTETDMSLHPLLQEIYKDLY

IC50 [nM] | Structure (SMILES)
1380 | COc1cc(O)c(CCC(C)C)c(O)c1C(=O)CCc1ccc(O)cc1 [TXN, Tetrahydroxanthohumol]
1970 | COc1cc(O)c(CC=C(C)C)c(O)c1C(=O)/C=C/c1ccc(O)cc1 [XN, Xanthohumol]

Structure (SMILES) | IC50 [nM]
CCCCCCCC/C=C\CCCCCCCC(=O)O [Oleic acid] | 16600
